In PubChem BioAssay AID1982 (Sanford-Burnham Center for Chemical Genomics, 2009):
Calls of active or inactive are those of the source. The rule behind the calls is not given here.

Columns and labels:
Experiment in all cases: kinase panel binding selectivity, selectivity assay, biochemical, KINOMEscan (AID 1982)
[1] = tested on: MYO3B; settings: KINOMEscan 353-kinase binding panel, qPCR, at 10 µM, hits give low values
[2] = tested on: PAK2; settings: KINOMEscan 353-kinase binding panel, qPCR, at 10 µM, hits give low values
[3] = tested on: PKAC-beta; settings: KINOMEscan 353-kinase binding panel, qPCR, at 10 µM, hits give low values
[4] = tested on: NEK9; settings: KINOMEscan 353-kinase binding panel, qPCR, at 10 µM, hits give low values
[5] = target: Serine/threonine-protein kinase TAO1 (Homo sapiens) (UniProt Q7L7X3); settings: KINOMEscan 353-kinase binding panel, qPCR; TAOK1; at 10 µM; hits give low values
[6] = tested on: PCTK3; settings: KINOMEscan 353-kinase binding panel, qPCR, at 10 µM, hits give low values
[7] = target: cAMP-dependent protein kinase catalytic subunit PRKX (Homo sapiens) (UniProt P51817); settings: KINOMEscan 353-kinase binding panel, qPCR, at 10 µM, hits give low values
[8] = tested on: MEK6; settings: KINOMEscan 353-kinase binding panel, qPCR, at 10 µM, hits give low values
[9] = tested on: SgK085; settings: KINOMEscan 353-kinase binding panel, qPCR, at 10 µM, hits give low values
[10] = tested on: LKB1; settings: KINOMEscan 353-kinase binding panel, qPCR, at 10 µM, hits give low values
[11] = target: Mitogen-activated protein kinase kinase kinase kinase 2 (Homo sapiens) (UniProt Q12851); settings: KINOMEscan 353-kinase binding panel, qPCR; MAP4K2; at 10 µM; hits give low values
[12] = target: Casein kinase I isoform gamma-1 (Homo sapiens) (UniProt Q9HCP0); settings: KINOMEscan 353-kinase binding panel, qPCR; CSNK1G1; at 10 µM; hits give low values
[13] = tested on: MUSK; settings: KINOMEscan 353-kinase binding panel, qPCR, at 10 µM, hits give low values
[14] = tested on: CAMK4; settings: KINOMEscan 353-kinase binding panel, qPCR, at 10 µM, hits give low values
[15] = target: Calcium/calmodulin-dependent protein kinase type 1D (Homo sapiens) (UniProt Q8IU85); settings: KINOMEscan 353-kinase binding panel, qPCR; CAMK1D; at 10 µM; hits give low values
[16] = target: Calcium/calmodulin-dependent protein kinase type II subunit gamma (Homo sapiens) (UniProt Q13555); settings: KINOMEscan 353-kinase binding panel, qPCR; CAMK2G; at 10 µM; hits give low values
[17] = target: Macrophage colony-stimulating factor 1 receptor (Homo sapiens) (UniProt P07333); settings: KINOMEscan 353-kinase binding panel, qPCR; CSF1R; at 10 µM; hits give low values
[18] = target: Fibroblast growth factor receptor 3 (Homo sapiens) (UniProt P22607); settings: KINOMEscan 353-kinase binding panel, qPCR, at 10 µM, hits give low values
[19] = tested on: RIOK1; settings: KINOMEscan 353-kinase binding panel, qPCR, at 10 µM, hits give low values
[20] = target: cGMP-dependent protein kinase 1 (Homo sapiens) (UniProt Q13976); settings: KINOMEscan 353-kinase binding panel, qPCR; PRKG1; at 10 µM; hits give low values
[21] = tested on: DCAMKL3; settings: KINOMEscan 353-kinase binding panel, qPCR, at 10 µM, hits give low values
[22] = target: Mitogen-activated protein kinase kinase kinase 20 (Homo sapiens) (UniProt Q9NYL2); settings: KINOMEscan 353-kinase binding panel, qPCR; ZAK; at 10 µM; hits give low values
[23] = target: Mitogen-activated protein kinase kinase kinase 5 (Homo sapiens) (UniProt Q99683); settings: KINOMEscan 353-kinase binding panel, qPCR; MAP3K5; at 10 µM; hits give low values
[24] = target: Vascular endothelial growth factor receptor 3 (Homo sapiens) (UniProt P35916); settings: KINOMEscan 353-kinase binding panel, qPCR; FLT4; at 10 µM; hits give low values
[25] = target: Insulin receptor (Homo sapiens) (UniProt P06213); settings: KINOMEscan 353-kinase binding panel, qPCR; INSR; at 10 µM; hits give low values
[26] = target: Tyrosine-protein kinase receptor UFO (Homo sapiens) (UniProt P30530); settings: KINOMEscan 353-kinase binding panel, qPCR; AXL; at 10 µM; hits give low values
[27] = tested on: NEK5; settings: KINOMEscan 353-kinase binding panel, qPCR, at 10 µM, hits give low values
[28] = target: Dual specificity protein kinase CLK2 (Homo sapiens) (UniProt P49760); settings: KINOMEscan 353-kinase binding panel, qPCR, at 10 µM, hits give low values
[29] = tested on: TLK2; settings: KINOMEscan 353-kinase binding panel, qPCR, at 10 µM, hits give low values
[30] = target: Leukocyte tyrosine kinase receptor (Homo sapiens) (UniProt P29376); settings: KINOMEscan 353-kinase binding panel, qPCR; LTK; at 10 µM; hits give low values
[31] = tested on: ACVR1; settings: KINOMEscan 353-kinase binding panel, qPCR, at 10 µM, hits give low values
[32] = target: Mast/stem cell growth factor receptor Kit (Homo sapiens) (UniProt P10721); settings: KINOMEscan 353-kinase binding panel, qPCR, at 10 µM, hits give low values
[33] = tested on: MARK1; settings: KINOMEscan 353-kinase binding panel, qPCR, at 10 µM, hits give low values

Mast/stem cell growth factor receptor Kit (Homo sapiens), sequence (P10721 whole entry, looked up): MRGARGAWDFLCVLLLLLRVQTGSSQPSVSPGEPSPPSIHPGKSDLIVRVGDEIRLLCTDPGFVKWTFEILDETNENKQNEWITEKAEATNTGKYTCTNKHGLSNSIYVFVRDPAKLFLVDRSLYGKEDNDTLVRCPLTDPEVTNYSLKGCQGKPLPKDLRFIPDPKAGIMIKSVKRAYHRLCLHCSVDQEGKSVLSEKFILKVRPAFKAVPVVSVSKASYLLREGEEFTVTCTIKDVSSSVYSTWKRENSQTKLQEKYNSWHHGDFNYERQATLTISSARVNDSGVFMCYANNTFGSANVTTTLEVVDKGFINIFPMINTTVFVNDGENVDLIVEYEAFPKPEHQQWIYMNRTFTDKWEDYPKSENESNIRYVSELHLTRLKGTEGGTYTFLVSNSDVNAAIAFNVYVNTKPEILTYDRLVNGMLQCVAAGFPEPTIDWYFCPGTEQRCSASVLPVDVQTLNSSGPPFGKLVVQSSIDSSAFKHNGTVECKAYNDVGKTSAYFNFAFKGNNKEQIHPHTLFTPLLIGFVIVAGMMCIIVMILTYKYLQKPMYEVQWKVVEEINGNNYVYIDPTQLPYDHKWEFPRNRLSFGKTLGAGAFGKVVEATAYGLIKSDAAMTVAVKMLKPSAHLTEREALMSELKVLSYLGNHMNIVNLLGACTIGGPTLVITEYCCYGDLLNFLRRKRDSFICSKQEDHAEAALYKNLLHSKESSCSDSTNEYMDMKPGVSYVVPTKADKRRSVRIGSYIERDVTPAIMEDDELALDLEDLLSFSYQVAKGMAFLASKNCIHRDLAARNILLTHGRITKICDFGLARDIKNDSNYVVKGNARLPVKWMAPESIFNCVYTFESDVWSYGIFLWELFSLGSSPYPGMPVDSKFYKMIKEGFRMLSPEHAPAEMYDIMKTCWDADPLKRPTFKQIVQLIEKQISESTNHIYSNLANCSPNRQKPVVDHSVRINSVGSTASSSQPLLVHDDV
Fibroblast growth factor receptor 3 (Homo sapiens), sequence (P22607 whole entry, looked up): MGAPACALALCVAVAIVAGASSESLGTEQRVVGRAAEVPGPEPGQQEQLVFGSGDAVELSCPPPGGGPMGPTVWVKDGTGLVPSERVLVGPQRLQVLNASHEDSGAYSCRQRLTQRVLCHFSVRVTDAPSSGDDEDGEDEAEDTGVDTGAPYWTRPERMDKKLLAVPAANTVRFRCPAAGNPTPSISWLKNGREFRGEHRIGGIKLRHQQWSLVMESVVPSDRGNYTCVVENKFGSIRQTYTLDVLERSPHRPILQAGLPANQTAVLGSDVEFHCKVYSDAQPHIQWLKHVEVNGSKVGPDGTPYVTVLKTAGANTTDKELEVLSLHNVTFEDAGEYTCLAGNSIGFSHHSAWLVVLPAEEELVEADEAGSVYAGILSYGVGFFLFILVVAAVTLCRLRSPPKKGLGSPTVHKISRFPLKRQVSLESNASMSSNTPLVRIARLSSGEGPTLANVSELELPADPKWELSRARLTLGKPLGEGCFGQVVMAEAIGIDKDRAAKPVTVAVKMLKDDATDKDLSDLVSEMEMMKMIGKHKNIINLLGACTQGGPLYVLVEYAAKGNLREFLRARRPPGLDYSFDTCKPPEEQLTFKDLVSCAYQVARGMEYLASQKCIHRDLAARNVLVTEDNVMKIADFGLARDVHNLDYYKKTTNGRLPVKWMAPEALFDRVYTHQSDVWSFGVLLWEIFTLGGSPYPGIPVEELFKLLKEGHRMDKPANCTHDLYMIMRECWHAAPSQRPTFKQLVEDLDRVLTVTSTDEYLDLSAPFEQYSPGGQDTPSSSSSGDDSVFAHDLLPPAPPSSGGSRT
Vascular endothelial growth factor receptor 3 (Homo sapiens), sequence (P35916 whole entry, looked up): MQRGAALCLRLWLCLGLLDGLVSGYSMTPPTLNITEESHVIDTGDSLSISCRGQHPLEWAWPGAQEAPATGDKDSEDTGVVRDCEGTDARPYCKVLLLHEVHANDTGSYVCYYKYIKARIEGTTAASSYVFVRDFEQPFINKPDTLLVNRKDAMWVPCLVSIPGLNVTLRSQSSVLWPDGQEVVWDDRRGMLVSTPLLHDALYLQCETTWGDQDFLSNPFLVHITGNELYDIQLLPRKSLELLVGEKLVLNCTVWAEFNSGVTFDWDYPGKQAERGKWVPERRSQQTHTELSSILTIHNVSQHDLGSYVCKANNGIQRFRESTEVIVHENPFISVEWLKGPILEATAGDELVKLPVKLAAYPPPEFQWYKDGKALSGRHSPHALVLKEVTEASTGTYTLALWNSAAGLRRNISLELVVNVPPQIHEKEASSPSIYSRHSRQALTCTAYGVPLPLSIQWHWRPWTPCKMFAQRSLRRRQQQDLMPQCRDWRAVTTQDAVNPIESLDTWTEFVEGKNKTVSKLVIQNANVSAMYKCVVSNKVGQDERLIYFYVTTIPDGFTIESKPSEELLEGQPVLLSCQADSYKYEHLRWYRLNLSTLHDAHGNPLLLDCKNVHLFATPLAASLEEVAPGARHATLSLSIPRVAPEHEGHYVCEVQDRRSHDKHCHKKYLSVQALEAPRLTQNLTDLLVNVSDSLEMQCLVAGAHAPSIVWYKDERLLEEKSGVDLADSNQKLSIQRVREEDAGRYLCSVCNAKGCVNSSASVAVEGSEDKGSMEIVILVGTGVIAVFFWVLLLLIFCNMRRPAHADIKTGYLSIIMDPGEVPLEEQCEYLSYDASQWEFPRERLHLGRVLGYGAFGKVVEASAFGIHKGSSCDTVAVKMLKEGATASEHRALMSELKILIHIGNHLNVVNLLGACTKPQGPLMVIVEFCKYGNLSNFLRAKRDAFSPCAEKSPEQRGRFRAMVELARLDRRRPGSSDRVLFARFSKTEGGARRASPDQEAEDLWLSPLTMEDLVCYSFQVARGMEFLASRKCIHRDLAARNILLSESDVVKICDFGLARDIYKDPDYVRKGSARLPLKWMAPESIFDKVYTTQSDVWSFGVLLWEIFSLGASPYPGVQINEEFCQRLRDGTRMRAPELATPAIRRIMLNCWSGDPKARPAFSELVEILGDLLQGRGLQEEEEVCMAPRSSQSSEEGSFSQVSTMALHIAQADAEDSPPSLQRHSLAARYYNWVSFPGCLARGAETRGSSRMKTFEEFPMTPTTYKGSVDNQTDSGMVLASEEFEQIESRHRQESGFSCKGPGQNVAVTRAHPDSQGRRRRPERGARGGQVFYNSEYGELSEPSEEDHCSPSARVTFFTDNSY
cGMP-dependent protein kinase 1 (Homo sapiens), sequence (Q13976 whole entry, looked up): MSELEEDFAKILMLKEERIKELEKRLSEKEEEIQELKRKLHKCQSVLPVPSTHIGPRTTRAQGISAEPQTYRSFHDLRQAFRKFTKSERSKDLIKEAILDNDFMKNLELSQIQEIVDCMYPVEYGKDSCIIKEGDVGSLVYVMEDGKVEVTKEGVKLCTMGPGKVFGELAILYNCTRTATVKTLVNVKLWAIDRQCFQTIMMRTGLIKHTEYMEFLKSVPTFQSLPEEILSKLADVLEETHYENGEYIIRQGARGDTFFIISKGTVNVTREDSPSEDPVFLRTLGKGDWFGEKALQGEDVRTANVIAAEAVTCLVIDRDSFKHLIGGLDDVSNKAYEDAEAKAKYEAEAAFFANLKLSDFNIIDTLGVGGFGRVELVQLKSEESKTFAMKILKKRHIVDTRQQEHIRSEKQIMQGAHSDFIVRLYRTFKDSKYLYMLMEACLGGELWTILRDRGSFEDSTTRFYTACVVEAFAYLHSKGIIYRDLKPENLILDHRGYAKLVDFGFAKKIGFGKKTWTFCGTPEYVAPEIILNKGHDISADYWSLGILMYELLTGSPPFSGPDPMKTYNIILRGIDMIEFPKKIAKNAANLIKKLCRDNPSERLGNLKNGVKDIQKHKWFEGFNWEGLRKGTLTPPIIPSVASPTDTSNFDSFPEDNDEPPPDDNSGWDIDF
cAMP-dependent protein kinase catalytic subunit PRKX (Homo sapiens), sequence (P51817 whole entry, looked up): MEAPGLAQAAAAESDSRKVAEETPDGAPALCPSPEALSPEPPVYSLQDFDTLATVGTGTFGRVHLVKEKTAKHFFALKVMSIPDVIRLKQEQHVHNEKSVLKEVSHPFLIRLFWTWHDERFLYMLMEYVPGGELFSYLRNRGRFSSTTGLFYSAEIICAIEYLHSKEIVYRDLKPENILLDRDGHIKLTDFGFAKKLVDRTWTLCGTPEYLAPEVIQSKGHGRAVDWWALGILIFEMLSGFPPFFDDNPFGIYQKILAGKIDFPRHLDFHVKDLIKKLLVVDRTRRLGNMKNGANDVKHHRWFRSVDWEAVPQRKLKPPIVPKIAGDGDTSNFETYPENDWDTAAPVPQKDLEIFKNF
Casein kinase I isoform gamma-1 (Homo sapiens), sequence (Q9HCP0 whole entry, looked up, canonical isoform): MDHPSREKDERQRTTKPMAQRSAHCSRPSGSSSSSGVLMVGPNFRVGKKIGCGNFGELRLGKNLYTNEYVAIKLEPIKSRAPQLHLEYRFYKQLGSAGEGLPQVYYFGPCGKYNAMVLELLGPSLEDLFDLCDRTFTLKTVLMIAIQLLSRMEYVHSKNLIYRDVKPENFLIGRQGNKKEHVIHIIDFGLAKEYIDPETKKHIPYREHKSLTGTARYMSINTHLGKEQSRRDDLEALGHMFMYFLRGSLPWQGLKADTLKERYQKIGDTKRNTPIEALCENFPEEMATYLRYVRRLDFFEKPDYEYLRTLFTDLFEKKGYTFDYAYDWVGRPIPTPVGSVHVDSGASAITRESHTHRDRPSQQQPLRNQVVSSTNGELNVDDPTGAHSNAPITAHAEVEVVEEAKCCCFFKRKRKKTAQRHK
Calcium/calmodulin-dependent protein kinase type 1D (Homo sapiens), sequence (Q8IU85 whole entry, looked up): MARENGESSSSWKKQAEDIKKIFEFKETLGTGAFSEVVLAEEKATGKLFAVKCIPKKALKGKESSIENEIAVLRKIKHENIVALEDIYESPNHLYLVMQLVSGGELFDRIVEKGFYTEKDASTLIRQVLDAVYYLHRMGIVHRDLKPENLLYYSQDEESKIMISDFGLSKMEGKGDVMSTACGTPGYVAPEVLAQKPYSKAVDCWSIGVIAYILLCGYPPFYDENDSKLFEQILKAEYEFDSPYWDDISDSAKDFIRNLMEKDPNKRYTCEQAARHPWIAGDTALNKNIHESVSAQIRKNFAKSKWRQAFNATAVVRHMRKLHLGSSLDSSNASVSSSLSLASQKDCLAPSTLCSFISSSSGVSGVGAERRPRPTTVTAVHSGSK

percent of control binding [1]: 65% (inactive)
percent of control binding [2]: 84% (inactive)
percent of control binding [3]: 95% (inactive)
percent of control binding [4]: 100% (inactive)
percent of control binding [5]: 90% (inactive)
percent of control binding [6]: 82% (inactive)
percent of control binding [7]: 100% (inactive)
percent of control binding [8]: 97% (inactive)
percent of control binding [9]: 99% (inactive)
percent of control binding [10]: 100% (inactive)
percent of control binding [11]: 89% (inactive)
percent of control binding [12]: 91% (inactive)
percent of control binding [13]: 100% (inactive)
percent of control binding [14]: 100% (inactive)
percent of control binding [15]: 100% (inactive)
percent of control binding [16]: 100% (inactive)
percent of control binding [17]: 72% (inactive)
percent of control binding ([18]; FGFR3(G697C)): 100% (inactive)
percent of control binding ([18]; FGFR3): 80% (inactive)
percent of control binding [19]: 100% (inactive)
percent of control binding [20]: 100% (inactive)
percent of control binding [21]: 100% (inactive)
percent of control binding [22]: 93% (inactive)
percent of control binding [23]: 100% (inactive)
percent of control binding [24]: 100% (inactive)
percent of control binding [25]: 94% (inactive)
percent of control binding [26]: 84% (inactive)
percent of control binding [27]: 91% (inactive)
percent of control binding [28]: 80% (inactive)
percent of control binding [29]: 100% (inactive)
percent of control binding [30]: 92% (inactive)
percent of control binding [31]: 89% (inactive)
percent of control binding [32]: 92% (inactive)
percent of control binding ([32]; KIT(D816V)): 90% (inactive)
percent of control binding ([32]; KIT(V559D)): 95% (inactive)
percent of control binding ([32]; KIT(V559D,T670I)): 94% (inactive)
percent of control binding ([32]; KIT(V559D,V654A)): 92% (inactive)
percent of control binding [33]: 100% (inactive)
Structure (SMILES): Cc1cc2nc(NCCCO)n(CC(=O)c3cc(C(C)(C)C)c(O)c(C(C)(C)C)c3)c2cc1C
